According to patent US20220401391A1, “METHODS AND COMPOSITIONS FOR TREATING PAIN” (Apkarian Technologies LLC, priority 2019, published 2022):
Entries after “also recorded” stand apart in the source; their conditions may differ.

How the values were obtained:
[1] = human, in vivo
Experimental: The study consisted of eight visits spread over ˜28 weeks, which included an initial screening/monitoring period (˜2 weeks), followed by a treatment period (12 weeks) and a post-treatment observational period (12 weeks). Safety and adverse events were assessed at each clinical visit, including vital signs. At each visit, researchers reminded participants to take their medication according to instructions. Safety was also assessed through blood screenings at baseline, while blood pressure, pulse and temperature were assessed at all study visits.
Adverse events (AEs) that occurred during treatment and those that occurred after treatment were differentiated. However, to account for potential late onset AEs or those related to withdrawal of medication, AEs occurring during a certain window after treatment were considered to be “during treatment”.
Analyses were done using MATLAB 2016a, JMP Pro version 13.2 (SAS Institute, Cary, N.C.) and SPSS version 25. Safety analyses included all participants who received at least one dose of the study drug.

[2] = tested on: subacute back pain (SBP) participants; test: Double-blind randomized trial of LDP+NPX vs PLC+NPX in subacute back pain; phone NRS pain ratings; format: in vivo, human; conditions: for One-week average pain ratings, pain intensity (0-10), Mean ± SEM: phone NRS 0-10 scale
From the text: The main outcome measure was a Numerical Rating Scale (NRS),^19 where “0” corresponds to no pain and “10” indicates worst possible pain. On this scale, participants provided ratings of their current pain up to three times a day during study participation (6 months), via a smartphone app (phone NRS).
Treatment-related percentage residual pain was computed relative to the average phone-NRS score from the week preceding start of treatment, for every subject and every day, and then averaged across subjects for each treatment type (FIG. 2A). Over the treatment period, a rapid decrease in back pain intensity was observed that, in the NoTx group, stabilizes (with large fluctuations) at around 80% residual pain, while in the LDP+NPX and PLC+NPX groups residual pain continues to decrease for the duration of treatment, reaching a residual pain of about 50%. […] Remarkably in all three groups, the observed pain relief persisted after cessation of treatment, over the next 12 weeks.
This 24-week double-blind parallel randomized controlled trial was conducted at Northwestern University (Chicago, USA). Protocol and informed consent form were approved by Northwestern University IRB as well as NIDCR/NIH. All enrolled participants provided written informed consent. Safety and trial oversight were monitored by an independent data safety monitoring board and a clinical research organization, with NIDCR/NIH oversight. The trial was registered on ClinicalTrials.gov, under registry NCT01951105.
• Eligible subjects first underwent a brain imaging session and, using predefined brain-derived parameters, were stratified into high and low-risk subgroups for transitioning to CBP. Those in the low-risk category, who had 60% or higher probability of recovering naturally, entered the NoTx arm; the rest, who had less than 60% probability of recovering naturally, were randomized between a placebo-control arm, and a pharmacological treatment arm. A flexible dose escalation procedure was used and both researchers and participants were blinded to treatment type. Study medications were tapered off at week 12, and participants continued to be evaluated for another 12 weeks. At final visit, participants underwent a second brain scan.
The design was setup to evaluate safety, efficacy and gender dependence of the combination of carbidopa/levodopa (12.5 mg/50 mg-25 mg/100 mg-50 mg/200 mg, dose escalation based on response) plus naproxen 250 mg (LDP+NPX) administered three times a day, compared to placebo plus naproxen 250 mg (PLC+NPX) administered three times a day.
Treatment with carbidopa/levodopa was titrated up to 12.5 mg/50 mg three times/day over one week and then continued at that level for 4 weeks. If by the end of the initial 4-week period the participant “responded” [had >20% decrease in pain intensity from the average of all phone NRS ratings collected at baseline (between visit 1 and visit 3) to the average of all phone NRS ratings during those 5 weeks], the participant was maintained on that dose for the duration of the treatment period (12 weeks total). If there was no response, the carbidopa/levodopa dose was increased to 25 mg/100 mg three times/day for the following 4 weeks, at which time the pain status was re-evaluated (based on the average of all phone NRS rating during those four weeks, against baseline average). Again, if a response occurred, that dose was maintained in a blinded manner for the following 4 weeks of treatment; if not, further dose-titration carbidopa/levodopa occurred to 50 mg/200 mg three times/day for the final 4 weeks. When a participant experienced an adverse event at higher doses, the participant was given the next lower dose that s/he was able to tolerate and then maintained on that dose for the remainder of the 12-week dosing period. Naproxen dose (250 mg three times/day) remained constant for all participants throughout the study, except it was not given during the tapering down at the end of the study. […]

Substance	Safety / tolerability in words [1]	Response rates across response criteria (80%-20% residual pain), in words ([2]; 3 and 6 months, by gender)	One-week average pain ratings, pain intensity (0-10), Mean ± SEM ([2]; 3 months (end of treatment))	One-week average pain ratings, pain intensity (0-10), Mean ± SEM ([2]; 6 months (3 months after end of treatment))	One-week average pain ratings, pain intensity (0-10), Mean ± SEM ([2]; BL (baseline))	Efficacy by gender (residual pain, in words) ([2]; females vs males, residual pain at six months)	Males showing at least 80% improvement ([2]; males) [%]	Residual pain reached over duration of treatment ([2]; relative to average phone-NRS of week preceding treatment, 12-week treatment)
levodopa/carbidopa [LDP]	No adverse effects specifically linked to LDP use were observed							
placebo+naproxen [PLC+NPX]		less effective yielding similar response rates in males and females; also recorded: less effective and similar among males and females	2.4 ± 0.4	2.2 ± 0.4	5.1 ± 0.3	more effective than LDP+NPX in males	38	about 50%
